Read-outs that look alike come from different tables or passages of the source.
Key:
full-length human CSNK1D = molecular target: T1, full-length human CSNK1D (Homo sapiens, UniProt P48730); test: CSNK1D Assay (ADP-Glo, 1 μM ATP); assay type: biochemical; conditions: Table 3, read-out: CSNK1D IC50 [mol/l] (median)
T1 construct: N-terminal Glutathion-S-Transferase (GST) and full-length human CSNK1D; purchased Life Technologies PV3665; host or cells: baculovirus infected insect cells
Summary of the method: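 Enzyme is N-terminal GST-tagged full-length human CSNK1D from baculovirus-infected insect cells (typically about 0.5 ng/μL), with a biotinylated peptide substrate and 1 μM ATP. Compound pre-incubated 15 min at 22° C in HEPES pH 7.5 buffer; ADP formed is read by ADP-Glo luminescence.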

[1] = molecular target: T2, wild-type Epidermal Growth Factor Receptor (EGFR) (Homo sapiens, UniProt P00533); test: WT-EGFR Kinase Assay (TR-FRET, 2 mM ATP); assay type: biochemical
T2 construct: a fragment of human EGFR (amino acids R669 to A1210); made in house; host or cells: Sf9 insect cells
T2 sequence (P00533 669-1210): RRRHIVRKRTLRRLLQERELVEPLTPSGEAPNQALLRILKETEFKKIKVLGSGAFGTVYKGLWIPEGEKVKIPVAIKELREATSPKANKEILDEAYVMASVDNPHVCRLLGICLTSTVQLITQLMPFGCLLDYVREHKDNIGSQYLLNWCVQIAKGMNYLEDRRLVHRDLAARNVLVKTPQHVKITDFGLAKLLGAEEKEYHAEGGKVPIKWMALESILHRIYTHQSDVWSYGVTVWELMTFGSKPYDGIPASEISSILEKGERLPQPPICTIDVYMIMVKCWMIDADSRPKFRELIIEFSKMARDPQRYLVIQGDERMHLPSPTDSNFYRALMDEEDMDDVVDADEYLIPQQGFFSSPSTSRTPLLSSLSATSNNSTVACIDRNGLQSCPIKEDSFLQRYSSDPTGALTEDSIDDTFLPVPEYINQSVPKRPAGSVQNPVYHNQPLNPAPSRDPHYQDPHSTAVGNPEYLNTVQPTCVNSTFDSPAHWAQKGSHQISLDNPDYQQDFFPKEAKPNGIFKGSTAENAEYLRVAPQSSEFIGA
Summary of the method: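 GST-fused human EGFR fragment (R669-A1210) from Sf9 cells, typically 7.6 pg/μL, pre-incubated with compound 15 min at 22° C in Hepes pH 7.0 buffer with MgCl2, DTT and vanadate; biotinylated peptide substrate. After EDTA stop, phosphopeptide detected by TR-FRET (anti-phosphotyrosine Tb-cryptate/streptavidin-XL665), 665/620 nm emission ratio.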

[2] = EGFR Wildtyp 2 mM ATP IC50 [mol/l] (median), Table 4
[3] = read-out: EGFR Wildtyp 2 mM ATP IC50 [mol/l] (median), Table 4

T1 sequence (P48730 whole entry): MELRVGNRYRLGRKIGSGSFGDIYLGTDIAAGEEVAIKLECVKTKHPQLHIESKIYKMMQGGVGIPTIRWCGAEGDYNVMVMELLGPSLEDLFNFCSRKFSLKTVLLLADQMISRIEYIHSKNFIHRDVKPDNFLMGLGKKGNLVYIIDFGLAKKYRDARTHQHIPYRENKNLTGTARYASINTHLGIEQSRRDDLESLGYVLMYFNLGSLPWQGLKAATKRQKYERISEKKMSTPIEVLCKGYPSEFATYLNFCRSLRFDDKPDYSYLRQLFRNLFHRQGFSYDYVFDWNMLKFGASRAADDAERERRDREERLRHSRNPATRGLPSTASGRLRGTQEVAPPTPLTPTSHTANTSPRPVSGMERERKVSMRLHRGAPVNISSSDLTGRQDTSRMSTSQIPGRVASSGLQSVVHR

SMILES: O=C(Nc1cc(-c2[nH]c3ncc(F)nc3c2-c2ccccn2)ccn1)C(CC(F)F)c1ccc(F)cc1 (single isomer, unassigned) [Example 63, (2R or S)-4,4-difluoro-2-(4-fluorophenyl)-N-{4-[2-fluoro-7-(pyridin-2-yl)-5H-pyrrolo[2,3-b]pyrazin-6-yl]pyridin-2-yl}butanamide]
- IC50 (full-length human CSNK1D): 3.77 nM
- IC50 [1, 2]: > 20000 nM

SMILES: O=C(Nc1cc(-c2[nH]c3ncc(F)nc3c2-c2ccccn2)ccn1)C(CC(F)F)c1ccc(F)cc1 (single isomer, unassigned) [Example 64, (2R or S)-4,4-difluoro-2-(4-fluorophenyl)-N-{4-[2-fluoro-7-(pyridin-2-yl)-5H-pyrrolo[2,3-b]pyrazin-6-yl]pyridin-2-yl}butanamide]
- IC50 (full-length human CSNK1D): 40.4 nM
- IC50 [1, 3]: > 20000 nM

SMILES: O=C(Nc1cc(-c2[nH]c3ccnnc3c2-c2ccccn2)ccn1)C(CC(F)F)c1ccc(F)cc1 (single isomer, unassigned) [Example 66, (2R or 2S)-4,4-difluoro-2-(4-fluorophenyl)-N-{4-[7-(pyridin-2-yl)-5H-pyrrolo[3,2-c]pyridazin-6-yl]pyridin-2-yl}butanamide]
- IC50 (full-length human CSNK1D): 4.59 nM
- IC50 [1, 2]: > 20000 nM

SMILES: O=C(Nc1cc(-c2[nH]c3ccnnc3c2-c2ccccn2)ccn1)C(CC(F)F)c1ccc(F)cc1 (single isomer, unassigned) [Example 67, (2R or S)-4,4-difluoro-2-(4-fluorophenyl)-N-{4-[7-(pyridin-2-yl)-5H-pyrrolo[3,2-c]pyridazin-6-yl]pyridin-2-yl}butanamide]
- IC50 (full-length human CSNK1D): 29.7 nM
- IC50 [1, 3]: > 20000 nM

SMILES: O=C(Nc1cc(-c2[nH]c3c(O[C@H]4CCOC4)ncnc3c2-c2ccccn2)ccn1)C(CC(F)F)c1ccc(F)cc1 (single isomer, unassigned) [Example 73, (2R or S)-4,4-difluoro-2-(4-fluorophenyl)-N-{4-[4-{[(3S)-oxolan-3-yl]oxy}-7-(pyridin-2-yl)-5H-pyrrolo[3,2-d]pyrimidin-6-yl]pyridin-2-yl}butanamide]
- IC50 (full-length human CSNK1D): 4.02 nM
- IC50 [1, 2]: > 20000 nM

SMILES: O=C(Nc1cc(-c2[nH]c3c(O[C@H]4CCOC4)ncnc3c2-c2ccccn2)ccn1)C(CC(F)F)c1ccc(F)cc1 (single isomer, unassigned) [Example 74, (2R or S)-4,4-difluoro-2-(4-fluorophenyl)-N-{4-[4-{[(3S)-oxolan-3-yl]oxy}-7-(pyridin-2-yl)-5H-pyrrolo[3,2-d]pyrimidin-6-yl]pyridin-2-yl}butanamide]
- IC50 (full-length human CSNK1D): 55.4 nM
- IC50 [1, 3]: > 20000 nM

SMILES: O=C(Nc1cc(-c2[nH]c3c(OCC(F)F)ncnc3c2-c2ccccn2)ccn1)C(CC(F)F)c1ccc(F)cc1 (single isomer, unassigned) [Example 79, (2R or S)—N-{4-[4-(2,2-difluoroethoxy)-7-(pyridin-2-yl)-5H-pyrrolo[3,2-d]pyrimidin-6-yl]pyridin-2-yl}-4,4-difluoro-2-(4-fluorophenyl)butanamide]
- IC50 (full-length human CSNK1D): 3.27 nM
- IC50 [1, 2]: > 20000 nM

SMILES: O=C(Nc1cc(-c2[nH]c3c(OCC(F)F)ncnc3c2-c2ccccn2)ccn1)C(CC(F)F)c1ccc(F)cc1 (single isomer, unassigned) [Example 80, (2R or S)—N-{4-[4-(2,2-difluoroethoxy)-7-(pyridin-2-yl)-5H-pyrrolo[3,2-d]pyrimidin-6-yl]pyridin-2-yl}-4,4-difluoro-2-(4-fluorophenyl)butanamide]
- IC50 (full-length human CSNK1D): 26.4 nM
- IC50 [1, 3]: > 20000 nM

SMILES: COc1cnc2c(-c3ccccn3)c(-c3ccnc(NC(=O)C(CC(F)F)c4ccc(F)cc4)c3)[nH]c2c1 (single isomer, unassigned) [Example 82, 4,4-difluoro-2-(4-fluorophenyl)-N-{4-[6-methoxy-3-(pyridin-2-yl)-1H-pyrrolo[3,2-b]pyridin-2-yl]pyridin-2-yl}butanamide]
- IC50 (full-length human CSNK1D): 3.17 nM
- IC50 [1, 2]: > 20000 nM

SMILES: COc1cnc2c(-c3ccccn3)c(-c3ccnc(NC(=O)C(CC(F)F)c4ccc(F)cc4)c3)[nH]c2c1 (single isomer, unassigned) [Example 83, 4,4-difluoro-2-(4-fluorophenyl)-N-{4-[6-methoxy-3-(pyridin-2-yl)-1H-pyrrolo[3,2-b]pyridin-2-yl]pyridin-2-yl}butanamide]
- IC50 (full-length human CSNK1D): 35.3 nM
- IC50 [1, 3]: > 20000 nM

SMILES: O=C(Nc1cc(-c2[nH]c3cc(Cl)cnc3c2-c2ccccn2)ccn1)C(CC(F)F)c1ccc(F)cc1 (single isomer, unassigned) [Example 88, (+)—N-{4-[6-chloro-3-(pyridin-2-yl)-1H-pyrrolo[3,2-b]pyridin-2-yl]pyridin-2-yl}-4,4-difluoro-2-(4-fluorophenyl)butanamide]
- IC50 (full-length human CSNK1D): 7.42 nM
- IC50 [1, 2]: > 20000 nM

SMILES: O=C(Nc1cc(-c2[nH]c3cc(Cl)cnc3c2-c2ccccn2)ccn1)C(CC(F)F)c1ccc(F)cc1 (single isomer, unassigned) [Example 89, (−)—N-{4-[6-chloro-3-(pyridin-2-yl)-1H-pyrrolo[3,2-b]pyridin-2-yl]pyridin-2-yl}-4,4-difluoro-2-(4-fluorophenyl)butanamide]
- IC50 (full-length human CSNK1D): 104 nM
- IC50 [1, 3]: > 20000 nM

SMILES: Cc1cnc2c(-c3ccccn3)c(-c3ccnc(NC(=O)C(CC(F)F)c4ccc(F)cc4)c3)[nH]c2n1 (single isomer, unassigned; (+)) [Example 86, (+)-4,4-difluoro-2-(4-fluorophenyl)-N-{4-[3-methyl-7-(pyridin-2-yl)-5H-pyrrolo[2,3-b]pyrazin-6-yl]pyridin-2-yl}butanamide]
- IC50 (full-length human CSNK1D): 6.16 nM
- IC50 [1, 2]: > 20000 nM

SMILES: COc1cnc2c(-c3ccccn3)c(-c3ccnc(NC(=O)C(CC(F)F)c4ccc(F)cc4)c3)[nH]c2c1 (centres unmarked) [Example 81, 4,4-difluoro-2-(4-fluorophenyl)-N-{4-[6-methoxy-3-(pyridin-2-yl)-1H-pyrrolo[3,2-b]pyridin-2-yl]pyridin-2-yl}butanamide]
- IC50 (full-length human CSNK1D): 5.85 nM
- IC50 [1, 2]: > 20000 nM

SMILES: Cc1ccnc2c(-c3ccccn3)c(-c3ccnc(NC(=O)C(CC(F)F)c4ccc(F)cc4)c3)[nH]c12 (centres unmarked) [Example 84, 4,4-difluoro-2-(4-fluorophenyl)-N-{4-[7-methyl-3-(pyridin-2-yl)-1H-pyrrolo[3,2-b]pyridin-2-yl]pyridin-2-yl}butanamide]
- IC50 (full-length human CSNK1D): 7.35 nM
- IC50 [1, 2]: > 20000 nM

SMILES: Cc1cnc2c(-c3ccccn3)c(-c3ccnc(NC(=O)C(CC(F)F)c4ccc(F)cc4)c3)[nH]c2n1 (centres unmarked) [Example 85, 4,4-difluoro-2-(4-fluorophenyl)-N-{4-[3-methyl-7-(pyridin-2-yl)-5H-pyrrolo[2,3-b]pyrazin-6-yl]pyridin-2-yl}butanamide]
- IC50 (full-length human CSNK1D): 7.11 nM
- IC50 [1, 2]: > 20000 nM
